{
  "source": "patent US4489061A",
  "about": "“Treatment of male mammals” (The Salk Institute for Biological Studies, priority 1982, dated 1984)",
  "key": {"male rats": {"tested_on": "male rats", "test": "14-day daily injection in male rats: gonadal function, hormones, androgen-dependent behavior, fertility and recovery", "format": "in vivo, rat", "conditions": "1 milligram daily for 14 days", "excerpt": "The peptide is used at a level effective to reduce testes and seminal vesicles weights and also to inhibit spermatogenesis after a 14-day administration to male rats. […] Prostate weights of male rats recover in 2-3 weeks and seminal vesicles weights in 4-5 weeks. It is preferred to use dosage levels in the range of from about 0.1 to about 1 milligram per rat per day, which can be administered without detrimental side effects.\n(§1) Male rats (about 320 grams each) are each treated with 1 milligram of the peptide synthesized in Example I, once a day, for 14 days by injection in 0.2 ml. of corn oil. All the rats show a decrease in testes and seminal vesicles weight, spermatogenesis and plasma androgen levels.\nFull recovery of testes and seminal vesicle weights, androgen-dependent behavior and spermatogenesis ultimately occurs following cessation of the 14-day peptide administration. […] Fertility, as assessed by the ability to impregnate females, is restored in all of the rats which have not been sacrificed within 6 weeks after cessation of the injections.\nas §1, with “A first group (I) of male” for “Male”, “Peptide A” for “the peptide”, “III, every day” for “I, once a day,”, “days,” for “days”, “levels. […]” for “levels.”"}, "[1]": {"tested_on": "release of gonadotropins by the pituitary gland", "conditions": "versus [des His2]-LRF; cited from earlier work"}},
  "note": "Where a SMILES comes first, the peptide text is derived from it. [ ]: non-standard residue; d: D form. dPhe(4-Cl) = N[C@H](Cc1ccc(Cl)cc1)C(=O)O; NMeL = CN[C@@H](CC(C)C)C(=O)O; pGlu = O=C1CC[C@@H](C(=O)O)N1; ΔPro = O=C(O)[C@@H]1C=CCN1",
  "data": [
    {"molecule": "CC(=O)N1CC=C[C@H]1C(=O)N[C@H](Cc1ccc(Cl)cc1)C(=O)N[C@H](Cc1c[nH]c2ccccc12)C(=O)N[C@@H](CO)C(=O)N[C@@H](Cc1ccc(O)cc1)C(=O)N[C@H](Cc1c[nH]c2ccccc12)C(=O)N(C)[C@@H](CC(C)C)C(=O)N[C@@H](CCCNC(=N)N)C(=O)N1CCC[C@H]1C(=O)NCC(N)=O", "note": "[Example I, [Ac-dehydro Pro^1, pCl--D--Phe^2, D--Trp^3,6, NαMeLeu^7]-LRF] (Ac-[ΔPro][dPhe(4-Cl)][dW]SY[dW][NMeL]RPG-NH2)", "values": [
      {"measurement": "side effects / damage", "setting": "male rats", "result": "without harmful side effects or irreversible damage"}
    ]},
    {"molecule": "[pGlu]WSY[dA]LRPG-NH2 [[des His^2, D-Ala^6]-LRF]", "values": [
      {"measurement": "potency as inhibitor of the release of gonadotropins, relative to the same peptide with Gly in the 6-position", "setting": "[1]", "result": 3, "unit": "times more potent"}
    ]}
  ]
}
